Assays:
[1] = system: patients at high risk for coronary events; settings: phase 3 clinical trial, active treatment group; trial terminated; cited from earlier work
[2] = system: normal Wistar rats given a high fat diet; experiment: In vivo study: isosteviol treatment of normal Wistar rats on high fat diet for 20 weeks (groups 3 and 4); settings: for plasma HDL-cholesterol level increase, Δ in %: high fat diet + isosteviol 0.03 g/kg/day
Description: (§1) 44 normal wistar rats at the age of about 6 weeks and a bodyweight of about 230 g, was randomised into 4 groups, with 11 in each group. Group 1 and 2 were fed with standard chow diet±Isosteviol (0.03 g/kg/day). Group 3 and 4 were diet induced to be hyperlipidemic by feeding with a high cholesterol containing diet (1.63% g cholesterol, 0.41% g Cholic acid, 16.3% g sunflower oil)±Isosteviol (0.03 g/kg/day). In the experiment was used Isosteviol with a purity of 99.4%. The treatment period was 20 weeks.
(§2) Blood samples were analyzed for hormones and lipids at the start and end of the study. The blood samples were taken from the tail or eye into glasses containing heparine/aprotinin. The samples were centrifuged and the plasma was frozen. The following were analyzed: total fasting plasma triglyceride level, total plasma cholesterol level, and plasma HDL-cholesterol level. Liver samples were analysed for mRNA expression of genes like SREBP-1, which have relation to the fat metabolism. The body weight was measured throughout the study period together with the food intake.
(§3) The fasting total plasma cholesterol level and the HDL-cholesterol level were measured by an enzymatic colorimetric test, the “cholesterol CHOD-PAP” method (cholesterol oxidase±phenol 4 amino phenazon), based on Trinder, using commercially available test kits (Roche Diagnostics, Basel, Germany), and the Cobas Mira instrument (Roche Diagnostics). The fasting plasma triglyceride level was measured by the enzymatic colorimetric GPO-PAP method (Glycerol phosphate oxidase±phenol 4 amino phenazon), based on Trinder, using commercially available test kits (Roche Diagnostics, Basel, Germany), and the Cobas Mira instrument (Roche Diagnostics).
(§4) Data are expressed as means±standard error of the mean (SEM). Statistical significance between two groups was evaluated using a two-tailed t test. A p value of less than 0.05 was considered statistically significant. For statistical analysis were used student t-tests and two way ANOVA-tests.
(§5) The setup differs from the setup in Example 1 by the use of non-diabetic rats versus the diabetic hyperlipidemic KKAY mouse model. In the present study the effect on HDL is investigated by comparing rats with a normal cholesterol level with rats having a diet induced elevated plasma cholesterol level.

[3] = system: normal Wistar rats given a normal chow diet; experiment: In vivo study: isosteviol treatment of normal Wistar rats on chow diet for 20 weeks (groups 1 and 2); settings: for plasma HDL-cholesterol level increase, Δ in %: chow diet + isosteviol 0.03 g/kg/day
Description: as §1, §2, §3, §4, §5

KKAy mice = experiment: In vivo study: isosteviol treatment of KKAy mice for 9 weeks (plasma lipids, body weight, food intake)
Protocol: Twenty male KKAy-mice (Clea Japan, Tokyo, Japan), all 5 week-old, weighing 22-25 g were randomized to 2 groups and treated for 9 weeks with; A: standard chow diet (control); B: standard chow diet+20 mg/kg BW of ISV. As a non-diabetic control group (C), ten normal C57BL-mice (Taconic, Ry, Denmark) were fed with standard chow diet (control to A), see FIG. 2 for outline of the study. The food intake was measured halfway through the study. The composition of the standard chow diet dry matter was: Protein 24%, carbohydrate 71%, and Lipids 5%. The drug isosteviol (ISV, ent-16-ketobeyeran-19-oic acid; Wako Pure Chemical Industries, Osaka, Japan) was incorporated in the mice food pellet and administered orally. The Danish Council for Animal experiments has approved the study.
Hormones and lipids were measured from blood sample at start and end of the treatment period. Blood sample was taken from the tail of the animals on chilled tubes containing heparin/aprotinin and centrifuged (4000 g, 60 seconds, 4° C.), and plasma was frozen for subsequent analysis of insulin, glucose, triglycerides, total cholesterol and HDL-cholesterol. Fasting blood glucose, as well as bodyweight (BW), was measured before and after intervention.
Plasma blood glucose was determined using the glucose oxidase method (GOD-PAP, Boehringer Mannheim, GmbH Germany). Insulin was determined by radioimmunoassay with a guinea pig antiporcine insulin antibody (PNILGP4, Novo Nordisk, Bagsvaerd, Denmark), and mono-[^125I]-(TyrA14) labeled human insulin (Novo Nordisk) as tracer and rat insulin (Novo Nordisk) as standard. We separated free and bound radioactivity using ethanol (See Heding L. G. Determination of total serum insulin (IRI) in insulin-treated diabetic patients; Diabetologia 1972; 8:260-266). Interassay and intra-assay variation was below 10%. […] The fasting plasma triglyceride level was measured by the enzymatic colorimetric GPO-PAP method (Glycerol phosphate oxidase±phenol 4 amino phenazon), based on Trinder, using commercially available test kits (Roche Diagnostics, Basel, Germany), and the Cobas Mira instrument (Roche Diagnostics). The fasting total plasma cholesterol level and the HDL-cholesterol level were measured by an enzymatic colorimetric test, the “cholesterol CHOD-PAP” method (cholesterol oxidase±phenol 4 amino phenazon), based on Trinder, using commercially available test kits (Roche Diagnostics, Basel, Germany), and the Cobas Mira instrument (Roche Diagnostics).
Data are expressed as means±standard error of the mean (SEM). Statistical significance between two groups was evaluated using a two-tailed t test. A p value of less than 0.05 was considered statistically significant. For plasma glucose calculations, analysis of covariance with adjustment for end body weight was performed.

[4] = High fat +Isosteviol, end (20 weeks)
[5] = High fat +Isosteviol, start of study
[6] = High fat +Isosteviol, start to end
[7] = start to end (20 weeks), listed as Isosteviol
[8] = high fat diet + isosteviol, start to end (20 weeks)
[9] = Chow +Isosteviol, end (20 weeks)
[10] = Chow +Isosteviol, start of study
[11] = chow diet + isosteviol, start to end (20 weeks)
[12] = comparing group 2 with group 1 at the end of the study period
[13] = group 2, chow + isosteviol, start to end (20 weeks)
[14] = KKAy mice, 20 mg/kg BW/day, after 9 weeks, n=10, in mM

CCOC(=O)N1c2ccc(C(F)(F)F)cc2[C@@H](N(Cc2cc(C(F)(F)F)cc(C(F)(F)F)c2)C(=O)OC)C[C@H]1CC [torcetrapib]
mortality [1]: increased mortality

C[C@@]12CC[C@@H]3[C@@](CC[C@H]4[C@@]3(C)CCC[C@@]4(C)C(=O)O)(CC1=O)C2 (single isomer, unassigned; ent-16) [isosteviol, ent-16-ketobeyeran-19-oic acid]
HDL cholesterol, End [2, 4]: 2.45 ± 0.25 MM
Total Cholesterol, End [2, 4]: 4.46 ± 0.37 MM
HDL cholesterol, Start [2, 5]: 1.34 ± 0.06 MM
Total Cholesterol, Start [2, 5]: 1.68 ± 0.1 MM
HDL cholesterol Δ Abs [2, 6]: 1.11 ± 0.26 mM
Total Cholesterol Δ Abs [2, 6]: 2.77 ± 0.38 mM
deaths ([2]; group 4, high fat diet + isosteviol, 20 weeks, two deaths in group 3 without isosteviol): No deaths
plasma HDL-cholesterol level increase, Δ in % ([2]; start to end (20 weeks)): 88%
plasma HDL-cholesterol level increase, Δ in % [2, 7]: 88%
fasting total plasma cholesterol level increase, Δ in % [2, 8]: 175%
fasting total plasma cholesterol level Δ [2, 8]: 2.77 ± 0.38 mmol/L
plasma HDL-cholesterol level Δ (SEM) [2, 8]: 1.11 ± 0.26 mmol/L
fasting total plasma cholesterol level increase, Δ in % ([2]; high fat diet + isosteviol, start to end (20 weeks), listed as Isosteviol): 175%
HDL cholesterol, End [3, 9]: 1.42 ± 0.08 MM
Total Cholesterol, End [3, 9]: 1.67 ± 0.09 MM
HDL cholesterol, Start [3, 10]: 1.25 ± 0.06 MM
Total Cholesterol, Start [3, 10]: 1.61 ± 0.06 MM
HDL cholesterol Δ Abs ([3]; Chow +Isosteviol, start to end): 0.17 ± 0.04 mM
Total Cholesterol Δ Abs ([3]; Chow +Isosteviol, start to end): 0.07 ± 0.06 mM
plasma HDL-cholesterol level increase, Δ in % ([3]; start to end (20 weeks)): 14%
plasma HDL-cholesterol level increase, Δ in % [3, 7]: 14%
fasting total plasma cholesterol level increase, Δ in % [3, 11]: 4%
fasting total plasma cholesterol level Δ [3, 11]: 0.07 ± 0.06 mmol/L
fasting total plasma cholesterol level increase, Δ in % ([3]; chow diet + isosteviol, start to end (20 weeks), listed as Isosteviol): 4%
reduction in triglyceride concentration, Δchange in % [3, 12]: 61±18%
reduction in triglyceride concentration, Δchange in absolute values [3, 12]: -0.28 ± 0.10 mmol/L
body weight reduced by ([3]; group 2 (chow + isosteviol) compared to group 1 (chow control), 20 weeks): 16%
body weight, mean±SEM ([3]; group 2, chow + isosteviol, 10 weeks of treatment): 371 ± 10 g
body weight, mean±SEM ([3]; group 2, chow + isosteviol, after 20 weeks of treatment): 388 ± 13 g
change in the fasting plasma triglyceride concentration [3, 13]: -0.16 ± 0.09 mmol/L
decrease in the fasting plasma triglyceride concentration [3, 13]: 23%
deaths ([3]; group 2, chow diet + isosteviol, 20 weeks): No deaths
fasting plasma triglyceride (TG) level (KKAy mice; ISV group, age 5 week (start of treatment)): 1.25 mmol/L
fasting plasma triglyceride (TG) level (KKAy mice; ISV group, age 14 weeks (after 9 weeks treatment)): 2.02 mmol/L
TG level increase, age 14 weeks compared to age 5 week (KKAy mice; ISV group, KKAy control increased 192%): 62%
fasting total plasma cholesterol level increased by (KKAy mice; KKAy mice, 20 mg isosteviol/kg body weight/day in chow, after 9 weeks, vs KKAy control): 28%
fasting plasma HDL-cholesterol, mean±SEM (KKAy mice; [14]): 2.999±0.091
fasting plasma total cholesterol, mean±SEM (KKAy mice; [14]): 3.055±0.067
plasma HDL-cholesterol concentration increased by (KKAy mice; KKAy mice, 20 mg/kg BW/day, after 9 weeks, vs KKAy control): 71%
plasma TG decreased compared to the KKAy group (KKAy mice; after 9 weeks treatment): 48%
body weight (KKAy mice; after 9 weeks treatment, KKAy control 41.6 g): 36.3 g
reduction in weight (KKAy mice; end of the 9 week treatment period, vs KKAy control): 13%
